test system: Cell Necrosis; experiment: Cell necrosis assay / cell viability assay (necrosis inhibitor activity); assay type: cell-based; settings: necrosis inhibitor activity; EC data for 14-191 extrapolated; read-out: EC50

| Structure (SMILES) | EC50 |
| --- | --- |
| COc1cccc(C=C2CN(C(=O)N3N=CCC3c3ccccc3)C2)c1 (stereo not shown) [Compound 43, (3-(3-methoxybenzylidene)azetidin-1-yl)(5-phenyl-4,5-dihydro-1H-pyrazol-1-yl)methanone] | 0.001 to 1 µM |
| O=C(N1CC(Cc2cccc(O)c2)C1)N1N=CCC1c1ccccc1 (stereo not shown) [Compound 44, (3-(3-hydroxybenzyl)azetidin-1-yl)(5-phenyl-4,5-dihydro-1H-pyrazol-1-yl)methanone] | 1 to 10 µM |
| O=C(N1CC(=Cc2cccc(F)c2)C1)N1N=CCC1c1ccccc1 (stereo not shown) [Compound 45, (3-(3-fluorobenzylidene)azetidin-1-yl)(5-phenyl-4,5-dihydro-1H-pyrazol-1-yl)methanone] | 0.001 to 1 µM |
| O=C(N1CC(=Cc2ccc(F)cc2)C1)N1N=CCC1c1ccccc1 (stereo not shown) [Compound 46, (3-(4-fluorobenzylidene)azetidin-1-yl)(5-phenyl-4,5-dihydro-1H-pyrazol-1-yl)methanone] | 0.001 to 1 µM |
| O=C(N1CC(Cc2ccccc2Cl)C1)N1N=CCC1c1ccccc1 (stereo not shown) [Compound 47, (3-(2-chlorobenzyl)azetidin-1-yl)(5-phenyl-4,5-dihydro-1H-pyrazol-1-yl)methanone] | 0.001 to 1 µM |
| O=C(N1CC(Cc2cccc(Cl)c2)C1)N1N=CCC1c1ccccc1 (stereo not shown) [Compound 48, (3-(3-chlorobenzyl)azetidin-1-yl)(5-phenyl-4,5-dihydro-1H-pyrazol-1-yl)methanone] | 0.001 to 1 µM |
| O=C(N1CC(Cc2ccc(Cl)cc2)C1)N1N=CCC1c1ccccc1 (stereo not shown) [Compound 49, (3-(4-chlorobenzyl)azetidin-1-yl)(5-phenyl-4,5-dihydro-1H-pyrazol-1-yl)methanone] | 0.001 to 1 µM |
| O=C(N1CC(Cc2ccc(F)cc2F)C1)N1N=CCC1c1ccccc1 (stereo not shown) [Compound 50, (3-(2,4-difluorobenzyl)azetidin-1-yl)(5-phenyl-4,5-dihydro-1H-pyrazol-1-yl)methanone] | 0.001 to 1 µM |
| O=C(N1CC(Cc2ccc(Cl)cc2F)C1)N1N=CCC1c1ccccc1 (stereo not shown) [Compound 51, (3-(4-chlor-2-fluorobenzyl)azetidin-1-yl)(5-phenyl-4,5-dihydro-1H-pyrazol-1-yl)methanone] | 0.001 to 1 µM |
| O=C(N1CC(Cc2ccc(F)cc2Cl)C1)N1N=CCC1c1ccccc1 (stereo not shown) [Compound 52, (3-(2-chloro-4-fluorobenzyl)azetidin-1-yl)(5-phenyl-4,5-dihydro-1H-pyrazol-1-yl)methanone] | 0.001 to 1 µM |
| O=C(N1CC(Cc2ccc(F)cc2F)C1)N1N=CCC1c1cccc(F)c1 (stereo not shown) [Compound 53, (3-(2,4-difluorobenzyl)azetidin-1-yl)(5-(3-fluorophenyl)-4,5-dihydro-1H-pyrazol-1-yl)methanone] | 0.001 to 1 µM |
| O=C(N1CC(Cc2ccc(F)cc2F)C1)N1N=CCC1c1cc(F)cc(F)c1 (stereo not shown) [Compound 54, (3-(2,4-difluorobenzyl)azetidin-1-yl)(5-(3,5-difluorophenyl)-4,5-dihydro-1H-pyrazol-1-yl)methanone] | 0.001 to 1 µM |
| O=C(N1CC(=Cc2ccc(F)cc2F)C1)N1N=CCC1c1cc(F)cc(F)c1 (stereo not shown) [Compound 55, (3-(2,4-difluorobenzylidene)azetidin-1-yl)(5-(3,5-difluorophenyl)-4,5-dihydro-1H-pyrazol-1-yl)methanone] | 0.001 to 1 µM |
| O=C(N1CC(=Cc2ccccc2F)C1)N1N=CCC1c1cc(F)cc(F)c1 (stereo not shown) [Compound 56, (5-(3,5-difluorophenyl)-4,5-dihydro-1H-pyrazol-1-yl)(3-(2-fluorobenzylidene)azetidin-1-yl)methanone] | 0.001 to 1 µM |
| O=C(N1CC(=Cc2ccc(F)cc2)C1)N1N=CCC1c1cc(F)cc(F)c1 (stereo not shown) [Compound 57, (5-(3,5-difluorophenyl)-4,5-dihydro-1H-pyrazol-1-yl)(3-(4-fluorobenzylidene)azetidin-1-yl)methanone] | 0.001 to 1 µM |
| O=C(N1CC/C(=C/c2ccccc2)C1)N1N=CCC1c1ccccc1 (stereo not shown) [Compound 58, (Z)-(3-benzylidenepyrrolidin-1-yl)(5-phenyl-4,5-dihydro-1H-pyrazol-1-yl)methanone] | 0.001 to 1 µM |
| O=C(N1CC(Oc2ccccc2)C1)N1N=CCC1c1ccccc1 (stereo not shown) [Compound 59] | 0.001 to 1 µM |
| O=C(N1CC(Oc2ccccc2F)C1)N1N=CCC1c1ccccc1 (stereo not shown) [Compound 60, (3-(2-fluorophenoxy)azetidin-1-yl)(5-phenyl-4,5-dihydro-1H-pyrazol-1-yl)methanone] | 0.001 to 1 µM |
| O=C(N1CC(Oc2cccc(F)c2)C1)N1N=CCC1c1ccccc1 (stereo not shown) [Compound 61, (3-(3-fluorophenoxy)azetidin-1-yl)(5-phenyl-4,5-dihydro-1H-pyrazol-1-yl)methanone] | 0.001 to 1 µM |
| O=C(N1CC(Oc2ccc(F)cc2)C1)N1N=CCC1c1ccccc1 (stereo not shown) [Compound 62, (3-(4-fluorophenoxy)azetidin-1-yl)(5-phenyl-4,5-dihydro-1H-pyrazol-1-yl)methanone] | 0.001 to 1 µM |
| O=C(N1CC(Oc2ccc(F)cc2F)C1)N1N=CCC1c1ccccc1 (stereo not shown) [Compound 63, (3-(2,4-difluorophenoxy)azetidin-1-yl)(5-phenyl-4,5-dihydro-1H-pyrazol-1-yl)methanone] | 0.001 to 1 µM |
| O=C(N1CC(Oc2ccccc2Cl)C1)N1N=CCC1c1ccccc1 (stereo not shown) [Compound 64, (3-(2-chlorophenoxy)azetidin-1-yl)(5-phenyl-4,5-dihydro-1H-pyrazol-1-yl)methanone] | 0.001 to 1 µM |

| Structure (SMILES) | EC50 |
| --- | --- |
| O=C(N1CC(Oc2ccc(Cl)cc2)C1)N1N=CCC1c1ccccc1 (stereo not shown) [Compound 65, (3-(4-chlorophenoxy)azetidin-1-yl)(5-phenyl-4,5-dihydro-1H-pyrazol-1-yl)methanone] | 0.001 to 1 µM |
| O=C(N1CC(Oc2ccc(F)c(F)c2)C1)N1N=CCC1c1ccccc1 (stereo not shown) [Compound 66, (3-(3,4-difluorophenoxy)azetidin-1-yl)(5-phenyl-4,5-dihydro-1H-pyrazol-1-yl)methanone] | 0.001 to 1 µM |
| O=C(N1CC(Oc2ccc(F)cc2Cl)C1)N1N=CCC1c1ccccc1 (stereo not shown) [Compound 67, (3-(2-chloro-4-fluorophenoxy)azetidin-1-yl)(5-phenyl-4,5-dihydro-1H-pyrazol-1-yl)methanone] | 0.001 to 1 µM |
| O=C(N1CC(Oc2ccc(O)cc2)C1)N1N=CCC1c1ccccc1 (stereo not shown) [Compound 70, (3-(4-hydroxyphenoxy)azetidin-1-yl)(5-phenyl-4,5-dihydro-1H-pyrazol-1-yl)methanone] | 1 to 10 µM |
| N#Cc1cccc(OC2CN(C(=O)N3N=CCC3c3cc(F)cc(F)c3)C2)c1 (stereo not shown) [Compound 71, 3-((1-(5-(3,5-difluorophenyl)-4,5-dihydro-1H-pyrazole-1-carbonyl)azetidin-3-yl)oxy)benzonitrile] | 0.001 to 1 µM |
| O=C(N1CC(Oc2ccc(F)cn2)C1)N1N=CCC1c1ccccc1 (stereo not shown) [Compound 72, (3-((5-fluoropyridin-2-yl)oxy)azetidin-1-yl)(5-phenyl-4,5-dihydro-1H-pyrazol-1-yl)methanone] | 0.001 to 1 µM |
| O=C(N1CC(Oc2ccc(F)nc2)C1)N1N=CCC1c1ccccc1 (stereo not shown) [Compound 73, (3-((6-fluoropyridin-3-yl)oxy)azetidin-1-yl)(5-phenyl-4,5-dihydro-1H-pyrazol-1-yl)methanone] | 0.001 to 1 µM |
| O=C(N1CC(Oc2cccnc2)C1)N1N=CCC1c1ccccc1 (stereo not shown) [Compound 74, (5-phenyl-4,5-dihydro-1H-pyrazol-1-yl)(3-(pyridin-3-yloxy)azetidin-1-yl)methanone] | 0.001 to 1 µM |
| O=C(N1CC(Oc2ccc(F)cc2F)C1)N1N=CCC1c1cccc(F)c1 (stereo not shown) [Compound 75, (3-(2,4-difluorophenoxy)azetidin-1-yl)(5-(3-fluorophenyl)-4,5-dihydro-1H-pyrazol-1-yl)methanone] | 0.001 to 1 µM |
| O=C(N1CC(Oc2ccccc2F)C1)N1OCC[C@H]1c1ccccc1 [Compound 77, (S)-(3-(2-fluorophenoxy)azetidin-1-yl)(3-phenylisoxazolidin-2-yl)methanone] | 0.001 to 1 µM |
| O=C(N1CC(Cc2ccc(F)cc2)C1)N1OCC[C@H]1c1ccccc1 [Compound 79, (S)-(3-(4-fluorobenzyl)azetidin-1-yl)(3-phenylisoxazolidin-2-yl)methanone] | 0.001 to 1 µM |
| O=C(N1CCN(c2ncc(F)cn2)CC1)N1OCC[C@H]1c1ccccc1 [Compound 81, (S)-(4-(5-fluoropyrimidin-2-yl)piperazin-1-yl)(3-phenylisoxazolidin-2-yl)methanone] | 0.001 to 1 µM |
| O=C(N1CC(Cc2ccc(F)cc2F)C1)N1OCC[C@H]1c1ccccc1 [Compound 82, (S)-(3-(2,4-difluorobenzyl)azetidin-1-yl)(3-phenylisoxazolidin-2-yl)methanone] | 0.001 to 1 µM |
| O=C(N1CCN(c2ncc(F)cn2)CC1)N1N=CCC1c1ccccc1 (stereo not shown) [Compound 83, (4-(5-fluoropyrimidin-2-yl)piperazin-1-yl)(5-phenyl-4,5-dihydro-1H-pyrazol-1-yl)methanone] | 0.001 to 1 µM |
| O=C(N1CCN(c2ncccn2)CC1)N1N=CCC1c1ccccc1 (stereo not shown) [Compound 84, (5-phenyl-4,5-dihydro-1H-pyrazol-1-yl)(4-(pyrimidin-2-yl)piperazin-1-yl)methanone] | 0.001 to 1 µM |
| O=C(N1CCN(c2ccc(F)cn2)CC1)N1N=CCC1c1ccccc1 (stereo not shown) [Compound 85, (4-(5-fluoropyridin-2-yl)piperazin-1-yl)(5-phenyl-4,5-dihydro-1H-pyrazol-1-yl)methanone] | 0.001 to 1 µM |
| O=C(N1CCN(c2cnccn2)CC1)N1N=CCC1c1ccccc1 (stereo not shown) [Compound 86, (5-phenyl-4,5-dihydro-1H-pyrazol-1-yl)(4-(pyrazin-2-yl)piperazin-1-yl)methanone] | 0.001 to 1 µM |
| Cc1cnc(N2CCN(C(=O)N3N=CCC3c3ccccc3)CC2)nc1 (stereo not shown) [Compound 87, (4-(5-methylpyrimidin-2-yl)piperazin-1-yl)(5-phenyl-4,5-dihydro-1H-pyrazol-1-yl)methanone] | 0.001 to 1 µM |
| O=C(N1CCN(c2ncc(Cl)cn2)CC1)N1N=CCC1c1ccccc1 (stereo not shown) [Compound 88, (4-(5-chloropyrimidin-2-yl)piperazin-1-yl)(5-phenyl-4,5-dihydro-1H-pyrazol-1-yl)methanone] | 0.001 to 1 µM |
| O=C(N1CCN(c2cccnn2)CC1)N1N=CCC1c1ccccc1 (stereo not shown) [Compound 89, (5-phenyl-4,5-dihydro-1H-pyrazol-1-yl)(4-(pyridazin-3-yl)piperazin-1-yl)methanone] | 1 to 10 µM |
| O=C(N1CCN(c2ccncn2)CC1)N1N=CCC1c1ccccc1 (stereo not shown) [Compound 90, (5-phenyl-4,5-dihydro-1H-pyrazol-1-yl)(4-(pyrimidin-4-yl)piperazin-1-yl)methanone] | 1 to 10 µM |

Reference: patent US12662469B2 (SIRONAX LTD, priority 2018, dated 2026)
